Tested on: T1, human 26S proteasome AAA-ATPase heterohexamer (Rpt1-6) in the holoenzyme
T1 construct: gene PSMC2; endogenous subunits in doubly capped 26S holoenzyme (28-subunit CP, 19-subunit RPs)
Assay: cryo-EM structure
Type: binding
Settings: 1 mM ATP-γ-S, 1 mM MgCl2, pH 7.5; Walker A nucleotide sites of Rpt subunits

## Nc1ncnc2c1ncn2[C@@H]1O[C@H](COP(=O)(O)OP(=O)(O)OP(O)(O)=S)[C@@H](O)[C@H]1O [ATP-γ-S]
  cryo-EM structure: ATP-γ-S was modeled into the nucleotide densities of four Rpt subunits in each state

From paper PMC5893597, “Structural mechanism for nucleotide-driven remodeling of the AAA-ATPase unfoldase in the activated human 26S proteasome” (Nature Communications, 2018)
